Laboratory results as given in patent publication US20120214822A1 (ASTRAZENECA AB, priority 2007, published 2012).
Structures can show the parent of a compound that is named as a salt.

Target: human active recombinant p38α-6His tagged (Homo sapiens, UniProt Q16539)
Assay: P38 Alpha Enzyme Assay (AlphaScreen, biotinylated-ATF2 substrate);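 also: 0.5 nM final p38α, reaction started with ATP and run 45 min at 37 °C, phospho-ATF2 read by antibody-based AlphaScreen, background wells quenched with EDTA before ATP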
Format: biochemical
Conditions: p38 alpha enzyme inhibition; means of replicate determinations; 4 h pre-incubation at 37° C.; SD of assay 0.2-0.3 log units

Chain of human active recombinant p38α-6His tagged (Q16539 whole entry): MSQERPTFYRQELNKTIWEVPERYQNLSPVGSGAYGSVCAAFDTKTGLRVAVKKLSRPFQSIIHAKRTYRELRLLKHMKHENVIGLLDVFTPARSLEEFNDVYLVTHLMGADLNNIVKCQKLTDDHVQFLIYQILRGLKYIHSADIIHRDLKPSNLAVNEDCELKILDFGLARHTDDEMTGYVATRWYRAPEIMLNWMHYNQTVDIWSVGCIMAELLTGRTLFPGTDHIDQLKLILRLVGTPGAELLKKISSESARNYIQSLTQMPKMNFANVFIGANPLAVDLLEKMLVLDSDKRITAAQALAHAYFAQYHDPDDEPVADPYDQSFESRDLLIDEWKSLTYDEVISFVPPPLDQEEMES

| Compound | pIC50 |
| --- | --- |
| Cc1ccccc1CNc1nccn(-c2cc(C(=O)NC3CC3)ccc2C)c1=O [Example 39, N-Cyclopropyl-4-methyl-3-[3-[[(2-methylphenyl)methyl]amino]-2-oxo-1(2H)-pyrazinyl]-benzamide] | 7.5 |
| COC[C@@H]1CCCN1C[C@@H](C)[C@@H](Nc1nccn(-c2cc(C(=O)NC3CC3)ccc2C)c1=O)c1ccccc1 [Example 150, N-Cyclopropyl-3-[3-[[(1R,2R)-3-[(2S)-2-(methoxymethyl)-1-pyrrolidinyl]-2-methyl-1-phenylpropyl]amino]-2-oxo-1(2H)-pyrazinyl]-4-methyl-benzamide] | 7.9 |
| Cc1ccc(C(=O)NC2CC2)cc1-n1ccnc(N[C@@H](c2ccccc2)[C@@H](C)CN2CCC3(CC2)CNC3)c1=O [Example 188, N-Cyclopropyl-3-[3-[[(1R,2S)-3-(2,7-diazaspiro[3.5]non-7-yl)-2-methyl-1-phenylpropyl]amino]-2-oxo-1(2H)-pyrazinyl]-4-methyl-benzamide] | 9.2 |
| Cc1ccc(C(=O)NC2CC2)cc1-n1cc(C(N)=O)nc(NCc2ccccc2)c1=O [Example 106, 4-[5-[(Cyclopropylamino)carbonyl]-2-methylphenyl]-4,5-dihydro-5-oxo-6-[(phenylmethyl)amino]-2-pyrazinecarboxamide] | 6.2 |
| Cc1ccc(C(=O)NC2CC2)cc1-n1ccnc(N[C@@H](c2ccccc2)[C@@H](C)CN2CCC(C(F)(F)F)CC2)c1=O [Example 177, N-Cyclopropyl-4-methyl-3-[3-[[(1R,2S)-2-methyl-1-phenyl-3-[4-(trifluoromethyl)-1-piperidinyl]propyl]amino]-2-oxo-1(2H)-pyrazinyl]-benzamide] | 9 |
| Cc1ccc(C(=O)NC2CC2)cc1-n1ccnc(N[C@@H](c2ccccc2)[C@@H](C)CN2CCCC2)c1=O [Example 142, N-Cyclopropyl-4-methyl-3-[3-[[(1R,2S)-2-methyl-1-phenyl-3-(1-pyrrolidinyl)propyl]amino]-2-oxo-1(2H)-pyrazinyl]-benzamide] | 8.8 |
| Cc1ccc(C(=O)NC2CC2)cc1-n1ccnc(NCc2ccc(Oc3ccccc3)cc2)c1=O [Example 45, N-Cyclopropyl-4-methyl-3-[2-oxo-3-[[(4-phenoxyphenyl)methyl]amino]-1(2H)-pyrazinyl]-benzamide] | 6.5 |
| CONC(=O)c1ccc(C)c(-n2ccnc(N3CCCC3)c2=O)c1 [Example 132, N-Methoxy-4-methyl-3-[2-oxo-3-(1-pyrrolidinyl)-1(2H)-pyrazinyl]-benzamide] | 7.5 |
| Cc1ccc(C(=O)NC2CC2)cc1-n1ccnc(NC(C)(C)c2ccccc2OCCCCN2CCN(C)CC2)c1=O [Example 206, N-Cyclopropyl-4-methyl-3-[3-[[1-methyl-1-[2-[4-(4-methyl-1-piperazinyl)butoxy]phenyl]ethyl]amino]-2-oxo-1(2H)-pyrazinyl]-benzamide] | 9.3 |
| Cc1ccc(C(=O)NC2CC2)cc1-n1ccnc(NCc2cccc(C)c2C)c1=O [Example 92, N-Cyclopropyl-3-[3-[[(2,3-dimethylphenyl)methyl]amino]-2-oxo-1(2H)-pyrazinyl]-4-methyl-benzamide] | 7.6 |
| Cc1ccc(C(=O)NC2CC2)cc1-n1ccnc(SCc2ccccc2)c1=O [Example 118] | 7.3 |
| Cc1ccc(C(=O)NC2CC2)cc1-n1ccnc(N[C@H](c2ccccc2)C2CCNCC2)c1=O [Example 103, N-Cyclopropyl-4-methyl-3-[2-oxo-3-[[(S)-phenyl-4-piperidinylmethyl]amino]-1(2H)-pyrazinyl]-benzamide trifluoroacetate] | 6.1 |
| COc1ccccc1C1CCCN1c1nccn(-c2cc(C(=O)NC3CC3)ccc2C)c1=O (centres unmarked) [Example 97, N-Cyclopropyl-3-[3-[2-(2-methoxyphenyl)-1-pyrrolidinyl]-2-oxo-1(2H)-pyrazinyl]-4-methyl-benzamide] | 8.7 |
| Cc1ccc(C(=O)NC2CC2)cc1-n1ccnc(N[C@@H](c2ccccc2)[C@@H](C)CN2CCC[C@H]2C)c1=O [Example 184, N-Cyclopropyl-4-methyl-3-[3-[[(1R,2S)-2-methyl-3-[(2R)-2-methyl-1-pyrrolidinyl]-1-phenylpropyl]amino]-2-oxo-1(2H)-pyrazinyl]-benzamide] | 8.7 |
| Cc1ccc(C(=O)NC2CC2)cc1-n1ccnc(N(C)CCc2ccccc2)c1=O [Example 66, N-Cyclopropyl-4-methyl-3-[3-[methyl(2-phenylethyl)amino]-2-oxo-1(2H)-pyrazinyl]benzamide] | 6.5 |
| Cc1ccc(C(=O)NC2CC2)cc1-n1ccnc(N[C@@H](c2cccc3ccccc23)[C@@H](C)CN2CCOCC2)c1=O [Example 145, N-Cyclopropyl-4-methyl-3-[3-[[(1R,2S)-2-methyl-3-(4-morpholinyl)-1-(1-naphthalenyl)propyl]amino]-2-oxo-1(2H)-pyrazinyl]-benzamide] | 8.2 |
| CONC(=O)c1ccc(C)c(-n2ccnc(N[C@@H](c3ccccc3)[C@@H](C)CO)c2=O)c1 [Example 162, 3-[3-[[(1R,2R)-3-Hydroxy-2-methyl-1-phenylpropyl]amino]-2-oxo-1(2H)-pyrazinyl]-N-methoxy-4-methyl-benzamide, trifluoroacetate] | 9.4 |
| Cc1ccc(C(=O)NC2CC2)cc1-n1ccnc(NCc2ccc3c(c2)OCO3)c1=O [Example 32, 3-[3-[(1,3-Benzodioxol-5-ylmethyl)amino]-2-oxo-1(2H)-pyrazinyl]-N-cyclopropyl-4-methyl-benzamide] | 6.8 |

Results, then the compound that gave them:

| pIC50 | Compound |
| --- | --- |
| 9.6 | Cc1ccc(C(=O)NC2CC2)cc1-n1ccnc(NC2(c3cccc(F)c3OCCNCCO)CC2)c1=O [Example 285, N-Cyclopropyl-3-[3-{[1-(3-fluoro-2-{2-[(2-hydroxyethyl)amino]ethoxy}phenyl)cyclopropyl]amino}-2-oxopyrazin-1(2H)-yl]-4-methylbenzamide] |
| 9.8 | Cc1c(F)cc(C(=O)NC2CC2)cc1-n1ccnc(NC(C)(C)c2ccccc2OCCNCC(=O)O)c1=O [Example 312, N-(2-{2-[1-({4-[5-(Cyclopropylcarbamoyl)-3-fluoro-2-methylphenyl]-3-oxo-3,4-dihydropyrazin-2-yl}amino)-1-methylethyl]phenoxy}ethyl)glycine] |
| 10.5 | COCCNCCOc1ccccc1C1(Nc2nccn(-c3cc(C(=O)NC4CC4)cc(F)c3C)c2=O)CC1 [Example 261, N-Cyclopropyl-3-fluoro-5-[3-[[1-[2-[2-[(2-methoxyethyl)amino]ethoxy]phenyl]cyclopropyl]amino]-2-oxo-1(2H)-pyrazinyl]-4-methyl-benzamide] |
| 9.8 | CCC(C)NCCOc1ccccc1C1(Nc2nccn(-c3cc(C(=O)NC4CC4)ccc3C)c2=O)CC1 (centres unmarked) [Example 246, N-Cyclopropyl-4-methyl-3-[3-[[1-[2-[2-[(1-methylpropyl)amino]ethoxy]phenyl]cyclopropyl]amino]-2-oxo-1(2H)-pyrazinyl]-benzamide] |
| 9.7 | C[C@@H](O)CNCCOc1ccccc1C(C)(C)Nc1nccn(-c2cc(C(=O)NC3CC3)ccc2Cl)c1=O [Example 332, 4-Chloro-N-cyclopropyl-3-[3-({1-[2-(2-{[(2R)-2-hydroxypropyl]amino}ethoxy)phenyl]-1-methylethyl}amino)-2-oxopyrazin-1(2H)-yl]benzamide] |
| 6.6 | CNCCOc1ccccc1C(C)(C)Nc1nccn(-c2cc(C(=O)NCC(C)C)ccc2C)c1=O [Example 226, 4-Methyl-3-[3-[[1-methyl-1-[2-[2-(methylamino)ethoxy]phenyl]ethyl]amino]-2-oxo-1(2H)-pyrazinyl]-N-(2-methylpropyl)-benzamide] |
| 9.2 | Cc1ccc(C(=O)NC2CC2)cc1-n1ccnc(NC2(c3ccccc3OCCN3CCC(F)(F)C3)CC2)c1=O [Example 244, N-Cyclopropyl-3-[3-[[1-[2-[2-(3,3-difluoro-1-pyrrolidinyl)ethoxy]phenyl]cyclopropyl]amino]-2-oxo-1(2H)-pyrazinyl]-4-methyl-benzamide] |
| 9.6 | Cc1ccc(C(=O)NC2CC2)cc1-n1ccnc(NC(C)(C)c2ccccc2OCCC2CCNCC2)c1=O [Example 217, N-Cyclopropyl-4-methyl-3-[3-[[1-methyl-1-[2-[2-(4-piperidinyl)ethoxy]phenyl]ethyl]amino]-2-oxo-1(2H)-pyrazinyl]-benzamide] |
| 8.5 | CNCCOc1ccccc1C(C)(C)Nc1nccn(-c2cc(C(=O)NC3(C)CC3)ccc2C)c1=O [Example 227, 4-Methyl-N-(1-methylcyclopropyl)-3-[3-[[1-methyl-1-[2-[2-(methylamino)ethoxy]phenyl]ethyl]amino]-2-oxo-1(2H)-pyrazinyl]-benzamide] |
| 10.2 | Cc1c(F)cc(C(=O)NC2CC2)cc1-n1ccnc(NC(C)(C)c2ccccc2OCCNCCO)c1=O [Example 253, N-Cyclopropyl-3-fluoro-5-[3-[[1-[2-[2-[(2-hydroxyethyl)amino]ethoxy]phenyl]-1-methylethyl]amino]-2-oxo-1(2H)-pyrazinyl]-4-methyl-benzamide] |
| 9.6 | Cc1ccc(C(=O)NC2CC2)cc1-n1ccnc(NC(C)(C)c2ccccc2OCCNC(C)C)c1=O [Example 212, N-Cyclopropyl-4-methyl-3-[3-[[1-methyl-1-[2-[2-[(1-methylethyl)amino]ethoxy]phenyl]ethyl]amino]-2-oxo-1(2H)-pyrazinyl]-benzamide] |
| 9.1 | Cc1ccc(C(=O)NC2CC2)cc1-n1ccnc(NC(C)(C)c2ccccc2OCC2CCNCC2)c1=O [Example 214, N-Cyclopropyl-4-methyl-3-[3-[[1-methyl-1-[2-(4-piperidinylmethoxy)phenyl]ethyl]amino]-2-oxo-1(2H)-pyrazinyl]-benzamide] |
| 8.8 | Cc1ccc(C(=O)NC2CC2)cc1-n1ccnc(NC2(c3ccccc3OCCNCC(F)(F)F)CC2)c1=O [Example 240, N-Cyclopropyl-4-methyl-3-[2-oxo-3-[[1-[2-[2-[(2,2,2-trifluoroethyl)amino]ethoxy]phenyl]cyclopropyl]amino]-1(2H)-pyrazinyl]-benzamide] |
| 8.2 | CNCCOc1ccccc1C(C)(C)Nc1nccn(-c2cc(C(=O)NCCF)ccc2C)c1=O [Example 225, N-(2-Fluoroethyl)-4-methyl-3-[3-[[1-methyl-1-[2-[2-(methylamino)ethoxy]phenyl]ethyl]amino]-2-oxo-1(2H)-pyrazinyl]-benzamide] |
